This passage reports Ki results from US8497245B2, “Trypsin-like serine protease inhibitors, their preparation and use as selective inhibitors of the clotting factors IIa and Xa” (The Medicines Company (Leipzig) GmbH, priority 2010, dated 2013).

Common to all, as to format: biochemical
Experiment [1] addresses T1, Subcomponent "r" of Human Complement Component 1 (h C1r) (Homo sapiens, UniProt P00736).
T1 construct: purchased Calbiochem
T1 sequence (P00736 464-705 limits assumed): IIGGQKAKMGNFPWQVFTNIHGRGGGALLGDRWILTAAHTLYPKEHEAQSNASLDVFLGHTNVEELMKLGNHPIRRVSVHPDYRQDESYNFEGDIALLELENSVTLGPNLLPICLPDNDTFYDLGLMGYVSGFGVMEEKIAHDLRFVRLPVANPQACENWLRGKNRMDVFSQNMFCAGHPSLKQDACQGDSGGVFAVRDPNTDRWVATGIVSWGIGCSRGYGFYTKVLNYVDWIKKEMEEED
T1 sequence (P00736 18-463 partner limits assumed): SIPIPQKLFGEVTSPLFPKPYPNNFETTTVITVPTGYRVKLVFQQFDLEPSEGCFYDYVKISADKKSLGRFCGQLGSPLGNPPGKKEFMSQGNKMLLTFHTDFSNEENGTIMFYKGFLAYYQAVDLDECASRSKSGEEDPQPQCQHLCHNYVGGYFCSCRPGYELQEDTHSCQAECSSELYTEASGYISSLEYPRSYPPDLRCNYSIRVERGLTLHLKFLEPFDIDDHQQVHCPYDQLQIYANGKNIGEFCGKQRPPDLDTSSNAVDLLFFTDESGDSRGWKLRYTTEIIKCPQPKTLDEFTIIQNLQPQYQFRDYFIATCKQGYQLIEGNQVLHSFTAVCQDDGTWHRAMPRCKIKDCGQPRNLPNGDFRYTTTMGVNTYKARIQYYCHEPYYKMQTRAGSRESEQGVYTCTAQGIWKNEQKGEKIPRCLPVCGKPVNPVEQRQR
The experiment is described as follows: Inhibition of human C1r (reference enzyme). To be noted: S-2314 substrate; read-out: Ki h Clr. The protocol: (§1) The inhibitory effect against the individual purified enzymes was determined in analogy to a previously disclosed method (Stürzebecher et al., J. Med. Chem., 40, 3091-3099 (1997)).
(§2) The release of p-nitroaniline (p-NA, the chromogenic product of the proteolytic activity), was determined by change in absorbance at 405 nm. The equilibrium rates were used to calculate the inhibitor/enzyme dissociation constant (Ki values) by parameter fitting in accordance with the rate equation for competitive inhibition using GraFit (version 4 from Erithacus). The results are reported as Ki values (nanomolar) in table 7 and are the average of at least three determinations.
(§3) Dissociation constants were calculated as described herein.

Experiment [2] deals with T2, Human Activated Protein C (h aPC) (Homo sapiens, UniProt P04070).
T2 construct: purchased Enzyme Research Laboratories
The experiment is described as follows: Inhibition of human activated protein C (reference enzyme). To be noted: Pefachrome PCa substrate. As for the experimental part:
as §1, §2, §3

Experiment [3] addresses T3, Human urokinase type plasminogen activator (h u-PA) (Homo sapiens, UniProt P00749).
T3 construct: purchased MEDAC GmbH Urokinase HS medac
The experiment is described as follows: Inhibition of human urokinase type plasminogen activator (reference enzyme). Particulars: H-Glu-Gly-Arg-pNA substrate. As for the experimental part: as §1, §2, §3

Experiment [4] deals with T4, Subcomponent "s" of Human Complement Component 1 (h C1s) (Homo sapiens, UniProt P09871).
T4 construct: purchased Calbiochem
T4 sequence (P09871 438-688 limits assumed): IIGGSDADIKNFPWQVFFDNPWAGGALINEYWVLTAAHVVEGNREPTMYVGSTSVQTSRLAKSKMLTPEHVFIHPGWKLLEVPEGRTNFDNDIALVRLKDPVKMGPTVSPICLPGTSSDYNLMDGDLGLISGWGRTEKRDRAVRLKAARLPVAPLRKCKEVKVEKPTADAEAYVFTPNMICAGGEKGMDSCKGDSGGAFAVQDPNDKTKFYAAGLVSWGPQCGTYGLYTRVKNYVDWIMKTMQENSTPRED
T4 sequence (P09871 16-437 partner limits assumed): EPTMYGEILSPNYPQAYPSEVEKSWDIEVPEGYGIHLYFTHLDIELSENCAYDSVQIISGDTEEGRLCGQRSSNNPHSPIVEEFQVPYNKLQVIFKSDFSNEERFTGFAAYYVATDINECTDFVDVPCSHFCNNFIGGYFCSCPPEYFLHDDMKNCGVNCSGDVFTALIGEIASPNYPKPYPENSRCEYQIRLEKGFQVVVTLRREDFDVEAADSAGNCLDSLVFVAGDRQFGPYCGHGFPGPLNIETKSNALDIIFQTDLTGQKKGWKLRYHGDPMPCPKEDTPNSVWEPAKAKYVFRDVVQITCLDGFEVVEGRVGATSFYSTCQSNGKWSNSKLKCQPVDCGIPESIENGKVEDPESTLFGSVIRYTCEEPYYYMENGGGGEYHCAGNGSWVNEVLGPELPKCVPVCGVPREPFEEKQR
The experiment is described as follows: Inhibition of human C1s (reference enzyme). To be noted: S-2314 substrate; read-out: Ki h Cls. As for the experimental part:
as §1, §2, §3

The target of experiment [5] is T5, Human tissue-type plasminogen activator (h t-PA) (Homo sapiens, UniProt P00750).
T5 construct: purchased Boehringer Ingelheim Actilyse
The experiment is described as follows: Inhibition of human tissue-type plasminogen activator (reference enzyme). Particulars: Pefachrome tPA substrate; read-out: Ki h t-PA. The protocol:
The equilibrium rates were used to calculate the inhibitor/enzyme dissociation constant (Ki values) by parameter fitting in accordance with the rate equation for competitive inhibition using GraFit (version 4 from Erithacus).
as §3

Experiment [6] concerns the target T6, Human urinary kallikrein (h uKK) (Homo sapiens, UniProt P06870).
T6 construct: purchased Lee Biosolutions
The experiment is described as follows: Inhibition of human urinary kallikrein (reference enzyme). Particulars: S-2266 substrate. The protocol: as §1, §2, §3

Experiment [7] has as its target T7, Human plasmin (h plasmin) (Homo sapiens, UniProt P00747).
T7 construct: purchased Calbiochem
The experiment is described as follows: Inhibition of human plasmin (reference enzyme). Particulars: Chromozym PL substrate. The protocol: as §1, §2, §3

Experiment [8] has as its target T8, Human plasma kallikrein (h PK) (Homo sapiens, UniProt P03952).
T8 construct: purchased Enzyme Research Laboratories
The experiment is described as follows: Inhibition of human plasma kallikrein (reference enzyme). Particulars: S2302 substrate. The protocol:
as §1, §2, §3

For experiment [9], the target named is T9, human factor IIa (human alpha-thrombin) (Homo sapiens, UniProt P00734).
T9 construct: human alpha-thrombin from Enzyme Research Laboratories; purchased Enzyme Research Laboratories
The experiment is described as follows: Inhibition constants for human factor IIa, chromogenic substrate assay. To be noted: 25° C., Pefachrome tPA substrate, average of at least three determinations; read-out: Ki h FIIa. The protocol:
as §1
(§4) 200 μL of TBS (0.05 M trishydroxymethylaminomethane; 0.154 M NaCl, 2% ethanol, pH 8.0)
as §2

The next experiment concerns the target T10, human Factor Xa (Homo sapiens, UniProt P00742).
T10 construct: human Factor Xa from Enzyme Research Laboratories; purchased Enzyme Research Laboratories
The experiment is described as follows: Inhibition constants for human factor Xa, chromogenic substrate assay. To be noted: 25° C., Pefachrome FXa substrate, average of at least three determinations; read-out: Ki h FXa. As for the experimental part:
as §1, §4, §2

The structures appear in SMILES notation. Counter-ions that a name gives are not always drawn.

T5 sequence (P00750 36-562): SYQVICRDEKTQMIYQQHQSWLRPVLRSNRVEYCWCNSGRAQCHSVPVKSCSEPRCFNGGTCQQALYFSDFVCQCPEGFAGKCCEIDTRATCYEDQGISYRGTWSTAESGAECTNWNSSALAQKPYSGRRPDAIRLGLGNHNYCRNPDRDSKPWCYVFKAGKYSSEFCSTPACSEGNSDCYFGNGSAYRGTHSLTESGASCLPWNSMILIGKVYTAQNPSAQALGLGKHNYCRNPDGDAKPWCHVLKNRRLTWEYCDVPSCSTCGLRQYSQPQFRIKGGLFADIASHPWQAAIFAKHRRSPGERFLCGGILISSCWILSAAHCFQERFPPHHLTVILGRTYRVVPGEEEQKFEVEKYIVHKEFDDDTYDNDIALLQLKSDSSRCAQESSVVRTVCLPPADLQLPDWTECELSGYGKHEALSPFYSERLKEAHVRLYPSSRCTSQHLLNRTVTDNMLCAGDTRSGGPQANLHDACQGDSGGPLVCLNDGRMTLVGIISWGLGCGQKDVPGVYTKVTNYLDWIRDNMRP
T8 sequence (P03952 391-638 limits assumed): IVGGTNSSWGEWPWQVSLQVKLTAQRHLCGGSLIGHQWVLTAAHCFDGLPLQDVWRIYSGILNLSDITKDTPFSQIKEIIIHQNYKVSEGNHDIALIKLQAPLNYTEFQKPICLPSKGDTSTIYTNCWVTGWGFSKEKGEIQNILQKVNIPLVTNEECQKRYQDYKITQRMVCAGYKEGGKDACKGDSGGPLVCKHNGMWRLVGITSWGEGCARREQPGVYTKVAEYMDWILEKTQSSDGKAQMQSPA
T8 sequence (P03952 20-390 partner limits assumed): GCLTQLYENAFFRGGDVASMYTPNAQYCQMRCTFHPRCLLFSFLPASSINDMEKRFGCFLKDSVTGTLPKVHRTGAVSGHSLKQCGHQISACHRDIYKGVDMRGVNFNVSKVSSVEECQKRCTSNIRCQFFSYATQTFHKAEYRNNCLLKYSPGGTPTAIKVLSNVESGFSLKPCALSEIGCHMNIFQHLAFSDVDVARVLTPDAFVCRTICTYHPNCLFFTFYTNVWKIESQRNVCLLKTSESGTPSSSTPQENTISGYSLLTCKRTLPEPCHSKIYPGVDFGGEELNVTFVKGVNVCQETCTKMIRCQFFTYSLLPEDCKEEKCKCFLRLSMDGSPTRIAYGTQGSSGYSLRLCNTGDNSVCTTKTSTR
T2 sequence (P04070 212-450 limits assumed): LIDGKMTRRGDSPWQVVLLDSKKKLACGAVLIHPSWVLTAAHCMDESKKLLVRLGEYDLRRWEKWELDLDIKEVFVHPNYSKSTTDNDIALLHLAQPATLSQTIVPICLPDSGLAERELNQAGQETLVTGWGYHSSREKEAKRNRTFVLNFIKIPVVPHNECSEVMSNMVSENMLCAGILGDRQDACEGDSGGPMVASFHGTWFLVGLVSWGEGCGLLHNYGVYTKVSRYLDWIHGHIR
T2 sequence (P04070 43-197 partner limits assumed): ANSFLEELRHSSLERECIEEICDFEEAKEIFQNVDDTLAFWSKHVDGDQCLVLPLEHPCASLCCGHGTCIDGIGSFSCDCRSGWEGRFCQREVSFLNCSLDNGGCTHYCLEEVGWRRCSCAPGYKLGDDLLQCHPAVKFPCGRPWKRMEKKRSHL
T10 sequence (P00742 235-488 limits assumed): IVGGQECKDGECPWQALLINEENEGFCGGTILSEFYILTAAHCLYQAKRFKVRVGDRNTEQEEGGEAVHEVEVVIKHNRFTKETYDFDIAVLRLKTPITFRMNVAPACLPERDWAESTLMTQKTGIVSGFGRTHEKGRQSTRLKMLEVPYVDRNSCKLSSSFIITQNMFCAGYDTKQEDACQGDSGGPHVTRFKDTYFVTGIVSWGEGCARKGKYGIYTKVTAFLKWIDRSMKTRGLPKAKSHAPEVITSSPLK
T10 sequence (P00742 41-179 partner limits assumed): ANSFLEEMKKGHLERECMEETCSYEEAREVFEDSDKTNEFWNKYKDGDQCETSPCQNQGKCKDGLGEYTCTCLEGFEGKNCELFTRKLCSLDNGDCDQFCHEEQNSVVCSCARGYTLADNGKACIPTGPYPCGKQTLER
T7 sequence (P00747 581-810 limits assumed): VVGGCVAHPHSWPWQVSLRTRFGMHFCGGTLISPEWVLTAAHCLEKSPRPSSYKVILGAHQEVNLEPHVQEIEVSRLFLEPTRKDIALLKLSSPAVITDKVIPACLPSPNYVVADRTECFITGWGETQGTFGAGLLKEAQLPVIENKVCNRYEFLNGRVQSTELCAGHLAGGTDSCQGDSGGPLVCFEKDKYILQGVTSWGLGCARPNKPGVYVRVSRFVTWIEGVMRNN
T7 sequence (P00747 97-580 partner limits assumed): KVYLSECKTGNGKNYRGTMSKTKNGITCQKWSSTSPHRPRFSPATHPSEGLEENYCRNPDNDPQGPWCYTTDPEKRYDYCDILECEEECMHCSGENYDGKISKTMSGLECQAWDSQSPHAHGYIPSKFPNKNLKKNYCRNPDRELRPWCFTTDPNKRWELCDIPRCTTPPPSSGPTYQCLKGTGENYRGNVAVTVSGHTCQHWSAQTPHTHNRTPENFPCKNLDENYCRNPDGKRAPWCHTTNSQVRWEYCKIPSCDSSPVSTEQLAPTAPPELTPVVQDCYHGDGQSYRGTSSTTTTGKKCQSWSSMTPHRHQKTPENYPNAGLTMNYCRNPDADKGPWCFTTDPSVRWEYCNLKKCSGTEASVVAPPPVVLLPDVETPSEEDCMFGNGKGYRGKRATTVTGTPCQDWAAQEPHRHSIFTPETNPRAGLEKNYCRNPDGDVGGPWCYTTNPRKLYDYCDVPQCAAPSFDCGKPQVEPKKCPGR
T6 sequence (P06870 25-262): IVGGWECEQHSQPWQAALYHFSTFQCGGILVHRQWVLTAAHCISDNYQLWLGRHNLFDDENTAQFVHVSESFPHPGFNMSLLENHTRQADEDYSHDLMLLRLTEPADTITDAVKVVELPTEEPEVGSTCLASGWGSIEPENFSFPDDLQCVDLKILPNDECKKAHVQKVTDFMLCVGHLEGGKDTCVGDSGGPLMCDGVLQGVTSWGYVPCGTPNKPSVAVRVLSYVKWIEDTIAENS

As usually defined, the Ki is a dissociation constant, usually derived from enzyme kinetics or from competition with a known ligand. On to `NCc1ccc(Cl)cc1CNC(=O)[C@@H]1CCCN1C(=O)[C@@H](CCC(=O)N1CCNCC1)NS(=O)(=O)Cc1ccccc1` [Compound 2.31], for which the Ki in experiment [1] was above 100 µM; in experiment [2] it was above 100 µM; in [3], above 100 µM; in experiment [4], above 100 µM; in experiment [5], above 20 µM; in [6], above 100 µM. Moreover, the inhibition constant Ki in experiment [7] is above 10 µM; in experiment [8], 4 µM; in [9], 0.00048 µM; on human Factor Xa, 0.021 µM.
Consider `O=C(NCc1cc(Cl)ccc1-n1cnnn1)[C@@H]1C[C@H](O)CN1C(=O)[C@@H](CCC(=O)N1CCOCC1)NS(=O)(=O)Cc1ccccc1` [Compound 2.21], for which the Ki in experiment [1] is above 100 µM; in experiment [2] it was above 50 µM; in experiment [3] it was above 100 µM; in [4], above 50 µM; in experiment [5] it was above 20 µM; in experiment [6], above 100 µM. Besides, the Ki worked out at 10.8 µM in experiment [7], 1.2 µM in experiment [8], 0.159 µM in [9] and 0.0053 µM at human Factor Xa.
As for `NCc1ccc(Cl)cc1CNC(=O)[C@@H]1CCCN1C(=O)[C@H](N)CCC(=O)N1CCOCC1` [Compound 2.49, H-D-Glu(morpholino)-L-Pro-Amb(2-AMe-5-Cl)×2 TFA], the Ki was above 10 µM in [1]; above 10 µM in experiment [2]; above 100 µM in experiment [3]; above 100 µM in [4]; above 100 µM in [5]; above 100 µM in experiment [6]. Further, the Ki is above 100 µM in experiment [7], above 10 µM in experiment [8], 0.008 µM in [9] and 0.134 µM on human Factor Xa.
In the case of `CN(C(=O)C[C@@H](NS(=O)(=O)Cc1ccccc1)C(=O)N1CCC[C@H]1C(=O)NCc1cc(Cl)ccc1CN)C1CCOCC1` [Compound 2.4], the Ki was above 10 µM in experiment [1]; above 10 µM in experiment [2]; above 40 µM in experiment [3]; above 25 µM in experiment [4]; above 100 µM in [5]; above 50 µM in experiment [6]. For the same molecule, the Ki in experiment [7] is above 20 µM; in experiment [8], 0.262 µM; in [9], 0.00056 µM; at human Factor Xa, 0.0013 µM.
On to `NCc1ccc(Cl)cc1CNC(=O)[C@@H]1CCCN1C(=O)[C@@H](CC(=O)Nc1ccncc1)NS(=O)(=O)Cc1ccccc1` [Compound 2.34], for which the Ki in experiment [1], in [2], in experiment [3], in [4], in [5] and in experiment [6] was above 100 µM in each case. Besides, the Ki in experiment [7] was above 20 µM; in experiment [8] it was 1.76 µM; in [9] it was 0.0017 µM; on human Factor Xa, 0.021 µM.
Consider `NCc1ccc(Cl)cc1CNC(=O)[C@@H]1CCCN1C(=O)[C@@H](CC(=O)N1CCCCC1)NS(=O)(=O)Cc1ccccc1` [Compound 2.41], for which the Ki in [1] was above 50 µM; in experiment [2] it was above 100 µM; in [3] it was above 50 µM; in [4], above 80 µM; in experiment [5] it was above 15 µM; in [6], above 40 µM. In addition, the Ki in experiment [7] is 8 µM; in experiment [8], 0.605 µM; in experiment [9] it was 0.00011 µM; at human Factor Xa it was 0.00012 µM.
In the case of `NCc1ccc(Cl)cc1CNC(=O)[C@@H]1CCCN1C(=O)[C@@H](CC(=O)N1CCNCC1)NS(=O)(=O)Cc1ccccc1` [Compound 2.19], the Ki in experiment [1] was above 50 µM; in [2], above 30 µM; in experiment [3], above 15 µM; in experiment [4] it was above 100 µM; in experiment [5] it was above 5 µM; in experiment [6] it was above 5 µM. Also, the inhibitory constant (Ki) was above 4.6 µM in [7], 1.02 µM in experiment [8], 0.0024 µM in experiment [9] and 0.0015 µM at human Factor Xa.
With `CN(C(=O)CC[C@@H](NS(=O)(=O)Cc1ccccc1)C(=O)N1CCC[C@H]1C(=O)NCc1cc(Cl)ccc1CN)C1CCOCC1` [Compound 2.26], the inhibition constant Ki in experiment [1] was above 100 µM; in [2], above 50 µM; in experiment [3], above 100 µM; in experiment [4] it was above 10 µM; in [5], above 100 µM; in [6] it was above 50 µM. Moreover, the Ki in experiment [7] was above 30 µM; in experiment [8], 2.55 µM; in experiment [9], 0.001 µM; at human Factor Xa, 0.0069 µM.
On to `CC(=O)N1CCC(N(C)C(=O)C[C@@H](NS(=O)(=O)Cc2ccccc2)C(=O)N2CCC[C@H]2C(=O)NCc2cc(Cl)ccc2CN)CC1` [Compound 2.2], for which the Ki in experiment [1] is above 50 µM; in experiment [2], above 90 µM; in [3], above 50 µM; in experiment [4], above 100 µM; in experiment [5], above 100 µM; in experiment [6], above 10 µM. The Ki in experiment [7] was above 10 µM; in [8] it was 4.46 µM; in experiment [9], 0.0031 µM; at human Factor Xa it was 0.023 µM.
For the molecule `NCc1ccc(Cl)cc1CNC(=O)[C@@H]1CCCN1C(=O)[C@@H](CC(=O)N1CC[C@@H](N)C1)NS(=O)(=O)Cc1ccccc1` [Compound 2.11], the Ki in experiment [1] was above 50 µM; in experiment [2], above 50 µM; in experiment [3] it was above 20 µM; in experiment [4], above 100 µM; in experiment [5], above 100 µM; in experiment [6], above 50 µM. Also, the Ki in experiment [7] is above 100 µM; in experiment [8], 3.35 µM; in experiment [9], 0.0059 µM; on human Factor Xa, 0.014 µM.
Regarding `NCc1ccc(Cl)cc1CNC(=O)[C@@H]1CCN1C(=O)[C@@H](CC(=O)N1CCCCC1)NS(=O)(=O)Cc1ccccc1` [Compound 2.45], the Ki was above 30 µM in experiment [1]; above 100 µM in experiment [2]; above 20 µM in experiment [3]; above 100 µM in experiment [4]; above 20 µM in [5]; above 10 µM in experiment [6]. In addition, the Ki in [7] is above 20 µM; in experiment [8], 1.86 µM; in experiment [9] it was 0.00072 µM; at human Factor Xa, 0.00022 µM.
